One data set concerns B16. Put plainly: Inhibition of melanin formation from L-DOPA in mouse B16 cells preincubated for 24 hrs followed by L-DOPA addition and subsequent incubation for 20 mins measured at 1 min interval for 10 mins by MBTH reagent based spectrophotometric method. It is filed as functional, cell-based.
The next data set is described as follows: in vitro. The conditions noted are these: mouse, B16 cells.
For data set [1], the target named is T1, Mushroom tyrosinase (Agaricus bisporus) (UniProt O42713+Q00024+C7FF04+C7FF05). In words: Inhibition of mushroom tyrosinase at 10 uM using L-tyrosine as substrate preincubated for 10 mins followed by substrate addition measured after 20 mins by spectrophotometric method relative to control.
The target in data set [2] is T1, Mushroom tyrosinase (Agaricus bisporus). In words: Inhibition of mushroom tyrosinase at 100 uM using L-tyrosine as substrate preincubated for 10 mins followed by substrate addition measured after 20 mins by spectrophotometric method relative to control.
Another data set concerns the target T2, Tyrosinase (Mus musculus, UniProt P11344).
T2 sequence (P11344 whole entry): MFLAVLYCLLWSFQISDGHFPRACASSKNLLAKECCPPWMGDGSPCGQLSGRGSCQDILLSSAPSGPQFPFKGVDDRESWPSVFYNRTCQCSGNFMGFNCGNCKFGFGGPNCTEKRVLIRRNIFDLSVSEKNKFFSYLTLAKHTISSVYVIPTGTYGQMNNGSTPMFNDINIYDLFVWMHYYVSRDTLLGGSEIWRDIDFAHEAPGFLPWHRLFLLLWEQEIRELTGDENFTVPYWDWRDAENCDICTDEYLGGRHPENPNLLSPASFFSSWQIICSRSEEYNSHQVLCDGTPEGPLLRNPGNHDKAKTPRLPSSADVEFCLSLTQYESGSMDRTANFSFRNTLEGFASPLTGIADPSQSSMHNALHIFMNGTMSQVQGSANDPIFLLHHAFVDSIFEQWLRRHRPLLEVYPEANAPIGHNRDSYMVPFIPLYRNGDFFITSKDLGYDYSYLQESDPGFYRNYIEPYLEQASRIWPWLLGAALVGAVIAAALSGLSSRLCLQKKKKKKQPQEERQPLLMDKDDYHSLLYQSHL

The target of data set [3] is T3, Tyrosinase (Mus musculus) (UniProt P11344).
T3 sequence (whole entry): T2 sequence (P11344 whole entry)
In words: Inhibition of intracellular tyrosinase activity in mouse B16 cells at 5 uM using L-DOPA as substrate preincubated for 24 hrs followed by substrate addition and subsequent incubation for 20 mins measured at 1 min interval for 10 mins by MBTH reagent based spectrophotometric method relative to control. It is filed as cell-based.

The target of another data set is Mushroom tyrosinase (Agaricus bisporus, UniProt O42713+Q00024+C7FF04+C7FF05). Put plainly: Inhibition of mushroom tyrosinase using L-tyrosine as substrate preincubated for 10 mins followed by substrate addition measured after 20 mins by spectrophotometric method.
The target of data set [4] is T3, Tyrosinase (Mus musculus). In words: Inhibition of intracellular tyrosinase activity in mouse B16 cells at 0.05 uM using L-DOPA as substrate preincubated for 24 hrs followed by substrate addition and subsequent incubation for 20 mins measured at 1 min interval for 10 mins by MBTH reagent based spectrophotometric method relative to control. It is filed as cell-based.

The source made the active and inactive calls. The rule behind the calls is not given here.

Description for in vitro: Cytotoxicity against mouse B16 cells after 24 hrs by MTT assay

With `C=CC(C)(C)c1cc(C2CC(=O)c3c(cc(O)c(CC=C(C)C)c3O)O2)c(OC)cc1O` (stereo not drawn), the inhibition (usually how much of the control response was suppressed) in the data set with B16 was “Active”. In the data set “in vitro”, the MNTC at 24 h stood at 50 µM. The inhibition in data set [1] and in data set [2] was 0% each time. In addition, at Tyrosinase, the IC50 (as a rule, the concentration that inhibits the measured activity by half) is 5 µM.

For the compound `C=CC(C)(C)c1cc(C2CC(=O)c3c(O)cc(O)c(CC=C(C)C)c3O2)c(O)cc1O` (stereo not drawn), the inhibition came out at 31.8% in data set [3], 90.5% in data set [1], 20.6% in data set [4] and 95% in data set [2]. In addition, in the data set “in vitro”, the MNTC at 24 h was 10 µM. Besides, the IC50 on Mushroom tyrosinase came to 2.32 µM; against Tyrosinase, 1 µM.

With `C=CC(C)(C)c1cc(C2CC(=O)c3c(O)cc(O)c(CC=C(C)C)c3O2)c(OC)cc1O` (stereo not drawn), the inhibition entry in the data set on B16 was “Active”. The compound also had an MNTC at 24 h in the data set “in vitro” of 5 µM. Further, the IC50 came to 49.8 µM on Mushroom tyrosinase and 5 µM on Tyrosinase. The inhibition is 21.5% in data set [1] and 63.8% in data set [2].

For the compound `CC(C)=CCc1c(O)cc2c(c1O)C(=O)CC(c1ccc(O)c(O)c1CC=C(C)C)O2` (stereo not drawn), in the data set with B16, the inhibition entry is “Active”. In addition, the MNTC at 24 h in “in vitro” was determined as 1 µM. Also, the inhibition in data set [1] came to 2.84%; in data set [2], 9.4%. At Tyrosinase, this compound displayed an IC50 of 0.75 µM.
